Experimental data: patent US20130053374A1, “OPHTHALMIC COMPOSITION” (priority 2010, published 2013)
In brackets after ≈: the same amount, converted by molar mass. Read-outs that look alike come from different tables or passages of the source.

Legend:
[1] = physchem; assay type: physicochemical; conditions: pH 7, aqueous with cosolvent or surfactant or cyclodextrin, thermodynamic from solid
Protocol: After allowing the suspensions to equilibrate at room temperature for additional 30 minutes, the suspension solutions were then sonicated for 10 min and finally filtered through 0.45 μm syringe filters.

[2] = Solubility of CAI with Bis-MPA hyperbranched polyester or PEG combination at pH 7.4 (Experimental Example 9); assay type: physicochemical; conditions: pH 7.4, 0.5% Timolol, 5% 3rd BMPA-HP
Protocol: Secondly, the effective volume of 5% (w/v) BMPA-HP solution was diluted appropriately to make up the exact concentrations described in Table 18. […] After stirring, the solution was sonicated for 5 minutes. […] The filtrates were analyzed for CAI using UPLC with the same condition as EXPERIMENTAL EXAMPLE 1.

[3] = pH 7.4, 0.5% (w/v) Timolol, 5% (w/v) HP (Boltorn W3000)
Protocol: The emulsion was prepared by slowing dispersing water to the weighed amount of waxed Boltorn® W3000 to make 5% (w/v) emulsion with continuous stirring and heating at 60-70° C. for at least 30 minutes, followed by continuous vigorous stirring for an additional 15 hours, to obtain a homogeneous emulsion mixture in a flask.
10 mM phosphate buffer was added to the appropriately weighed mass of solid active ingredients and stirred thoroughly for 15 minutes. Secondly, the effective volume of 5% (w/v) HP emulsion solution was diluted appropriately to make up the exact concentrations described in Table 13. The sample test emulsion solutions were then stirred for 10 minutes at room temperature (with heating up to 60° C. for 5 minutes). After stirring, the emulsion solution was sonicated for 5 minutes. After allowing the complete emulsion of all the active and non-active ingredients, the pH was adjusted to 7.4 by using 1 M NaOH, and additional buffer was added to make up the exact compositions in Table 13. With the adjustment of the pH, the emulsion solutions were further equilibrated by stirring for an additional 15 hours or more at room temperature. The pH of all the sample emulsion solutions was measured again to confirm the final desired pH of 7.4.

[4] = cited from earlier work; for pKa (amine group): protonated secondary amine (Dorzolamide), amine (Brinzolamide); for pKa (sulfonamide group): sulfonamide (Dorzolamide), primary sulfonamide (Brinzolamide)
[5] = Aqueous solubility of Dorzolamide in the presence of Timolol with HP, PEG, Polysorbate 80 (Experimental Example 3); assay type: physicochemical
Protocol: The final pH was adjusted to 5.65 with 1 M NaOH after addition of HP (sample 1). The combination of different molecular weight PEG and Polysorbate 80 at pH 5.65 as per Table 3 were also attempted. […] After allowing the suspensions to equilibrate at room temperature for an additional 30 minutes, the suspension solutions were then sonicated for 10 minutes and finally filtered through 0.45 μm syringe filters.

[6] = system: intact rabbit corneas; conditions: for enhancement of corneal permeation rate: male, New Zealand, rabbit, 180 min, pH 5.65
Protocol: The samples were filtered by 0.45 μm filter syringe. The initial concentration of both the samples was determined by UPLC analysis.
Three male rabbits (New Zealand) weighing 3-4 pounds. The age of the rabbits was 11-12 weeks. Immediately after sacrifice by an overdose of carbon dioxide gas, the eyes were enucleated, saline washed, and the corneas were separated for the use in permeation experiments. Each cornea was rinsed with freshly prepared receptor solution (Table 4) to remove excess stain. The six intact and fresh corneas were fixed between clamped donor and receptor compartments of an all glass side-by-side diffusion cell in such a way that its epithelial surface faces the donor compartment.
The corneal area available for permeation was 0.211 cm^2. The receptor compartment was filled with freshly prepared receptor solution at pH 7.2, as per the composition described in Table 4. An aliquot (5 mL) of sample #1 was placed on the two intact corneas, and the opening of the donor cells was sealed with a glass cover slip. After 10 minutes of applying sample #1, an aliquot (5 mL) of sample #2 was applied on the next two intact corneas. Again, after 10 minutes, sample #3 aliquot (5 mL) was applied on the remaining two intact corneas. The receptor fluid (5 mL in each receptor cell) was kept at constant temperature of 34° C. using constant stirring through water jacket in all the six cases. At predetermined time intervals of 10, 20, 40, 60, 80, 100, 120, 140, 160, and 180 minutes, 200 μL samples were withdrawn from the receptor solution. Thereafter, the same amount of the phosphate buffer solution was added to the receptor cell. The drug concentrations were assayed by UPLC.
At the end of the experiment, each cornea (free from adhering sclera) was weighed after soaking in de-ionized water. The wet cornea was dried overnight in oven, and reweighed. From the difference of weights, corneal hydration was calculated. […] The parameters that were calculated are as follows:

[7] = system: isolated rabbit cornea; conditions: pH 7.4
From the text: The permeability coefficient is inversely proportional to the initial concentration of the drug in the donor solution.

[8] = pH-solubility of Dorzolamide with hyperbranched polymer and PEG (Experimental Example 1); assay type: physicochemical; conditions: 0.1% (w/v) phosphate buffer, FIG. 1
Protocol: Similar suspensions were also prepared in aqueous solution containing different concentrations of different HP and PEG with a molecular weight of 8000. A combination of Polysorbate 80 and PEG 8000 was also attempted. The pH was measured accurately with micro-pH electrode (Thermo Scientific). The desired pH was adjusted using either 1 M NaOH or 1 M HCl. […] After allowing the suspensions to equilibrate at room temperature for an additional 30 minutes, the suspension solutions were then sonicated for 10 minutes and finally filtered through 0.45 μm syringe filters.

[9] = system: intact rabbit corneas
Protocol: 10 mM phosphate buffer was added to the appropriately weighed mass of the solid active ingredients, and stirred thoroughly for 15 minutes. […] The three test solutions were then stirred for 10 minutes at room temperature (with heating up to 60° C. for 5 minutes). After stirring, the solution was sonicated for 5 minutes. After allowing the complete dilution of all the active and non-active ingredients, the pH was adjusted to either 7.4 or 5.65 by using 1 M NaOH or 1 M HCl, and additional buffer was added to make up the exact compositions in the Table 15. With the adjustment of pH, the appearance was noted as per Table 14, and the formulations were further equilibrated by stirring for an additional 15 hours or more at room temperature. The pH of the all sample solutions was measured again to confirm the final desired pH. These formulations were used directly as sample donor solutions for the cornea permeation study.

[10] = system: intact rabbit corneas; remark: listed apart in the source
From the text: These suspension solutions were used directly as sample donor solutions for the cornea permeation study. In order to determine the solubility, the suspensions were filtered through 0.45 μm syringe filters.
Three male rabbits (New Zealand) weighing 2 to 3 kg. Immediately after sacrifice by an overdose of inhaler isoflurane, the eyes were enucleated, and the corneas were separated for use in the permeation experiments.

| solubility at 30 min [1] [mg/mL] | solubility [2] | solubility [3] | solubility thermodynamic at 30 min ([5]; aqueous buffer, thermodynamic from solid, pH 7, 10 mM phosphate buffer, no additives) [mg/mL] | diffusion coefficient on addition of HP and Polysorbate 80 [6] | enhancement of corneal permeation rate [6] | cumulative amount permeated compared to the market product [7] | pH-solubility profile (aqueous solubility vs pH) [8] | diffusion coefficient on addition of HP [9] | diffusion coefficient on addition of HP [10] | solubility of Timolol with the addition of additives ([5]; pH 5.65 and pH 7, samples containing 0.5% w/v Timolol) | cumulative amount permeated relative to the market product ([7]; male, New Zealand, rabbit, 180 min) | cumulative amount permeated relative to control formulation at similar pH with no additives ([9]; male, New Zealand, rabbit, 180 min, pH 7.4) [times] | Compound | pKa (amine group) [4] | pKa (sulfonamide group) [4] |
| --- | --- | --- | --- | --- | --- | --- | --- | --- | --- | --- | --- | --- | --- | --- | --- |
| ~11 (≈ 28.7 mM) | about 1 % (w/v) | about 2 % (w/v) | – | – | – | – | – | – | – | – | – | – | CCN[C@H]1CN(CCCOC)S(=O)(=O)c2sc(S(N)(=O)=O)cc21 [Brinzolamide] | 5.9 | 8.4 |
| – | – | – | < 5 | did not change significantly | 25-30% | almost comparable | reaches a bottom at pH 7 | did not change significantly | did not change significantly | – | – | – | CCN[C@H]1C[C@H](C)S(=O)(=O)c2sc(S(N)(=O)=O)cc21 [Dorzolamide] | 6.35 | 8.5 |
| – | – | – | – | did not change significantly | 25-30% | – | – | did not change significantly | did not change significantly | did not change | more than 2 times | ~2 | CC(C)(C)NC[C@H](O)COc1nsnc1N1CCOCC1 [Timolol] | – | – |
